According to publication PMC11636681, “Pharmacokinetics and pharmacodynamics of antibacterial peptide NZX in Staphylococcus aureus mastitis mouse model” (Applied Microbiology and Biotechnology, 2024):
Positions of bridges follow the written chain, without caps; N, C: chain ends. Residues, ends and D or L forms follow the SMILES beside them.

What was measured:
S. aureus ATCC 25923 [1] = test: Mutant prevention concentration (MPC) on MHA plates; type: cell-based, Staphylococcus aureus; details: 1 × 10^10 CFU/mL, 37 °C, 72 h, each concentration three times
Procedure: (§1) Minimal Inhibitory Concentration (MIC), Minimal Bactericidal Concentration (MBC) and Mutant Prevention Concentration (MPC).
(§2) MPCs of NZX against the test S. aureus strain were determined as described by Plowgian et al., with some modification (Plowgian et al. [2019]). In brief, S. aureus cells were cultured to mid-log phase in Mueller–Hinton broth (MHB) medium. Then the suspensions were centrifuged (4000 rpm for 5 min) and the pellets were collected and diluted to a final concentration of 1 × 10^10 CFU/mL with MHB. […] All plates were incubated at 37 ^∘C for 72 h and the concentration corresponding to the plate with no bacterial growth was regarded as the provisional mutant prevention concentration (MPCpr). […] Lincomycin and ceftiofur were set as antibiotic controls, respectively. Each concentration was conducted three times.

S. aureus E48 [2] = test: as above; type: cell-based, Staphylococcus aureus; details: 1 × 10^10 CFU/mL, 37 °C, 72 h, each concentration three times
Procedure: as §1, §2

S. aureus ATCC 25923 [3] = test: Post antibiotic effect (PAE); type: cell-based, Staphylococcus aureus; details: 2 h exposure at 1 × to 8 × MIC, 1 × 10^8 CFU/mL, triplicate
Procedure: (§3) PAE was performed based on the method of Zhang et al. (Zhang et al. [2014]). S. aureus E48, S. aureus ATCC 25923 and S. aureus ATCC 43300 were cultured at 37 °C in MHB medium to the log-phase. Then, the diluted cells (1 × 10^8 CFU/mL) were exposed to NZX with final concentration of 1 × , 2 × , 4 × and 8 × MIC in the 48-well plates for 2 h at 37 °C. After incubation, NZX were removed by diluting 1:1000 with MHB medium. Viable counts were determined immediately after drug reconstruction and at 1–2 h interval for at least 10 h. PAE determination was calculated as PAE (h) = T-C, where T is the time (h) that required to increase by tenfold for the drug-treated viable count from the moment of drug reconstruction and C is the time (h) required to increase by tenfold for cell density without treatment. The experiments were conducted in triplication.

S. aureus E48 [4] = test: Post antibiotic effect (PAE); type: cell-based, Staphylococcus aureus; details: 2 h exposure at 1 × to 8 × MIC, 1 × 10^8 CFU/mL, triplicate
Procedure: as §3

S. aureus ATCC 25923 [5] = test: Cell membrane permeability, PI staining by flow cytometry; type: cell-based, Staphylococcus aureus
Procedure: (§4) Flow cytometry was used for the analysis of the effects of NZX on the penetration rate of the S. aureus cell membrane (Yang et al. [2019]). The S. aureus cells in mid-log phase were adjusted to 1 × 10^8 CFU/mL and the bacteria suspensions were treated with 1 × , 2 × and 4 × MIC of NZX for 2 h at 37 °C. In addition, the cell suspensions were incubated with 2 × MIC of NZX for 0 h, 0.5 h, 1 h and 2 h, respectively. After incubation, the cells were centrifuged at 4000 rpm at 4 °C for 5 min, washed twice with sterile PBS, and pellets were resuspended in 1 mL of PBS. Next, cells were stained with 50 µg/mL propidium iodide (PI) for 30 min in the dark at room temperature, and the proportion of cells with PI positive cells to the total cells were analyzed by flow-cytometry (BD, USA). Lincomycin and ceftiofur were used as positive controls and PBS as negative control. Three replicates for each treatment were conducted.

S. aureus E48 [6] = test: as above; type: cell-based, Staphylococcus aureus
Procedure: as §4

S. aureus ATCC 25923 [7] = test: Mouse mastitis model, bacterial counts in mammary tissues; type: in vivo; details: 24 h after treatment; for bacteria reduction in mammary tissues: vs PC group
Source text: (§5) The 7 to 8-weeks old ICR mice (80 females, 40 males) were housed in independent ventilated cages, and feed with autoclaved laboratory food and water. Female mice in heat were put into the cage of males (females:males, 2:1) overnight and checked for vaginal plugs at the following morning to induce pregnancy. ICR-lactating mice were used at 6 to 8 days after the birth of the offspring. The mouse mastitis model was established as previously described (Li et al. [2017]). Mice were randomly divided into nine groups: NC group (uninfected group), PC group (infected but without treatment), NZX groups (25, 50, 100, 200 and 400 μg/gland, respectively), lincomycin group (100 μg/gland), and ceftiofur group (100 μg/gland). Each experimental group has six independent experiments with three mice. Specially, the pups were removed 1 h before the intramammary injection of both L4 (on the left) and R4 (on the right) abdominal mammal glands. A 100 μL of S. aureus strains (1 × 10^6 CFU/mL) was administrated to mice in PC, NZX, lincomycin and ceftiofur groups, and the same volume of sterile physiological saline was administrated to mice in NC group. Glands of 3 h post-infection were injected with sterile physiological saline, NZX, lincomycin, or ceftiofur. The mice were euthanized after the treatment for 24 h, and their mammary glands were dissected, weighed, and homogenized. The animal experiments were performed according to the Animal Care and Use Committee of the Feed Research Institute, Chinese Academy of Agricultural Sciences (Permit Number: AEC-CAAS-20090609) in accordance with the Guidelines for Animal Experimentation.
(§6) After mouse sacrifice, one part of mammary tissue was taken for bacterial count, and the other part was used for the histopathological analysis. Specifically, tissues were aseptically collected immediately from the dead mice, weighted, homogenized with sterile physiological saline (1:1, W:V). Next, the homogenates were serially diluted (ten-fold dilutions) in physiological saline, plated on MHA plate, and then cultured overnight at 37 °C. The bacterial number on each plate was counted and the results were expressed as Log10 CFU per gram of mammary tissues. In addition, mammary tissues were fixed in 4% paraformaldehyde, then embedded in paraffin, cut into 5 μm sections, and later stained by hematoxylin–eosin (H&E). The stained sections were observed under a light microscope (× 200) for pathological morphology and scoring of mammary tissues (Schmidt et al. [1992]).

S. aureus E48 [8] = test: as above; type: in vivo; details: 3 h post-infection, 24 h after treatment, vs PC group
Source text: as §5, §6

[9] = 2 × MIC, range over 0, 0.5, 1 and 2 h
[10] = 2 h, range over 1 × MIC, 2 × MIC and 4 × MIC

SMILES	MPC (S. aureus ATCC 25923 [1]) [µM]	MPC (S. aureus E48 [2]) [µM]	mean PAE range (S. aureus ATCC 25923 [3]) [h]	mean PAE range (S. aureus E48 [4]) [h]	percentage of PI-positive cells (S. aureus ATCC 25923 [5]; [9])	percentage of PI-positive cells (S. aureus ATCC 25923 [5]; [10])	percentage of PI-positive cells (S. aureus E48 [6]; [9])	percentage of PI-positive cells (S. aureus E48 [6]; [10])	bacteria reduction in mammary tissues (S. aureus ATCC 25923 [7]; 100 μg/gland intramammary) [Log10 CFU/g]	bacteria reduction in mammary tissues (S. aureus E48 [8]; 100 μg/gland intramammary) [Log10 CFU/g]	bacterial loads in mammary tissues (S. aureus ATCC 25923 [7]; 400 μg/gland intramammary)	bacteria reduction in mammary tissues (S. aureus ATCC 25923 [7]; range over 25–400 μg/gland intramammary)	bacteria reduction in mammary tissues (S. aureus E48 [8]; range over 25 ~ 400 μg/gland intramammary)
CO/N=C(\C(=O)N[C@@H]1C(=O)N2C(C(=O)O)=C(CSC(=O)c3ccco3)CS[C@H]12)c1csc(N)n1 [Ceftiofur]	234.24	5.49	1.40 to 2.29	1.30 to 2.10	1.35–4.31%	1.55–3.42%	2.61–23.53%	8.56–21.1%	6.99	5.70			
CCC[C@@H]1C[C@@H](C(=O)N[C@@H]([C@H]2O[C@H](SC)[C@H](O)[C@@H](O)[C@H]2O)[C@@H](C)O)N(C)C1 [Lincomycin]	> 1111.04	> 1111.04	0.94 to 1.52	2.02 to 3.27		0.45 to 0.63%	0.13–2.61%	0.08 to 0.09%	5.23	7.37			
CC[C@H](C)[C@@H]1NC(=O)[C@H](CO)NC(=O)[C@H](CCCCN)NC(=O)[C@@H]2CSSC[C@@H](C(=O)N[C@@H](Cc3ccc(O)cc3)C(=O)O)NC(=O)[C@H](CCCCN)NC(=O)[C@@H]3CSSC[C@H](NC(=O)[C@H](CCC(N)=O)NC(=O)[C@H]([C@@H](C)CC)NC(=O)[C@H](CC(=O)O)NC(=O)[C@H](CC(=O)O)NC(=O)[C@H](CCC(=O)O)NC(=O)[C@H](CO)NC(=O)[C@H](Cc4c[nH]c5ccccc45)NC(=O)[C@@H]4CCCN4C(=O)CNC(=O)[C@H](CC(N)=O)NC(=O)[C@@H](NC(=O)CNC(=O)[C@H](Cc4ccccc4)NC(=O)CN)CSSC[C@H](NC(=O)[C@H](Cc4ccc(O)cc4)NC(=O)CNC(=O)CNC(=O)[C@H](CCCCN)NC(=O)[C@H](Cc4ccc(O)cc4)NC(=O)CNC(=O)[C@H](CCCCN)NC1=O)C(=O)N[C@@H](C)C(=O)N[C@@H](CCCNC(=N)N)C(=O)NCC(=O)NCC(=O)N[C@@H](Cc1ccccc1)C(=O)N[C@@H](C(C)C)C(=O)N3)C(=O)N[C@@H](Cc1c[nH]cn1)C(=O)N[C@@H](CC(N)=O)C(=O)N[C@@H](Cc1c[nH]cn1)C(=O)N2 [NZX] (H-GFGCNGPWSEDDIQCHNHCKSIKGYKGGYCARGGFVCKCY-OH; disulfide 4-30, 15-37, 19-39; N-terminus and C-terminus assumed)	3.68	1.47	1.67 to 3.34	1.14 to 3.60	1.93 to 54.06%	12.9–48.0%	2.61 to 72.93%	25.6–70.3%	4.73	8.34	eliminated	3.35–11.09 Log10 CFU/g	0.77–8.34 Log10 CFU/g
